{
  "source": "patent US12251370B2",
  "about": "“Small molecule inhibitors of the BfrB:Bfd interaction” (BOARD OF SUPERVISORS OF LOUISIANA STATE UNIVERSITY AND …, priority 2018, dated 2025)",
  "key": {"[1]": {"system": "P. aeruginosa clinical isolate MR60", "experiment": "Effect of analog on ciprofloxacin potency, clinical isolate MR60", "type": "cell-based, Pseudomonas aeruginosa", "procedure": "The combined treatment was carried out similarly, ensuring that the final concentration of DMSO was 2%."}, "[2]": {"system": "A. baumannii", "experiment": "Growth curves and IC50 determination in A. baumannii", "type": "cell-based, Acinetobacter baumannii (AB5075)", "settings": "Acinetobacter baumannii; AB5075; modified M63 media; 48 well-plates", "procedure": "Pre-cultures (5 mL LB media) were grown for 12 h at 37° C. and 220 rpm in 50 mL conical tubes (VWR International, PA) covered with an air permeable membrane. The cells were then centrifuged at 4,000 rpm for 10 min, the resultant cell pellets washed twice in M63 media and then diluted in M63 media to OD600=0.01. Stock solutions (100 mM) of analog in DMSO were prepared weekly and stored at 4° C. Prior to initiating experiments in 96 well plates, the analog stock solution was serially diluted to make 10 mM or 1 mM working solutions in DMSO. A small volume of the appropriate working solution was transferred to a glass vial, diluted with DMSO to 30 μL, and then diluted to a final volume of 1.5 mL with pre-culture cell suspension with an OD600=0.01. The resultant cell suspension (200 μL) was transferred to a clear-bottom polystyrene 96 well plate (VWR), and incubated at 35° C. and 205 cpm for 13 h in an Epoch 2 microplate spectrophotometer (Biotek Instruments, Inc., Vermont). The growth curve in the presence of Ciprofloxacin was obtained in the same plate. […] MIC determinations were carried out using standard broth microdilution methods in 48 well plates and modified M63 media. Cells were incubated at 35° C.\nThis idea was tested with A. baumanni AB5075, a highly virulent isolate, which has been proposed as a model strain for the evaluation of pathogenesis and antimicrobial treatments.^66."}, "[3]": {"system": "ΔbfrB P. aeruginosa cells", "experiment": "Growth response of bfrB deletion mutant cells to analog", "type": "cell-based, Pseudomonas aeruginosa", "settings": "M63 + 4 μM Fe; 15 h post-inoculation; viable cells vs untreated control", "procedure": "To this end, wild type and ΔbfrB cells were cultured in M63 media supplemented with 4 μM Fe, in the presence of different concentrations of analog. […] Since BfrB is not essential, it is likely that the cell can compensate for the absence of the iron storage protein. […] The sudden onset of toxicity observed in the second phase, which is not observed with the wild type cells, is probably related to off-target effects that expose a fitness vulnerability caused by the absence of BfrB. Consequently, it is possible to conclude that the dose-dependent growth defect elicited by 11 or 16 on wild type P. aeruginosa cells is largely a consequence of the interaction between the small molecule inhibitors and BfrB in the bacterial cell. This issue was investigated in additional detail (see below) by probing the phenotypic and biochemical response of wild type cells treated with the small molecule inhibitors."}, "[4]": {"system": "iron mobilization from BfrB in P. aeruginosa", "experiment": "Imaging of iron stored in BfrB and analysis of total iron levels", "type": "cell-based, Pseudomonas aeruginosa", "settings": "analog 125 μM, M63 + 4 μM Fe", "procedure": "The resultant cell suspensions (5 mL) were mixed with a small volume of a 10 mM working solution of analog 16 in DMSO to give a 125 μM solution and 2% DMSO, or simply 2% DMSO (control). The conical tubes were covered with a sterile air permeable membrane and the cultures incubated at 35° C. and 120 rpm for 6, 9, 12, 15, 18, 21 and 24 h. Prior to separating the cells by centrifugation (4,000 rpm, 15 min), a 100 μL aliquot was withdrawn from each conical tube and serially diluted for plating and enumerating viable cells. The separated pellet was washed with 5 mL of PBS and frozen at −20° C. for subsequent analysis. The corresponding cell free supernatants were used for iron analysis in the spent media, as described below. […]\nTo determine the total iron levels of cells treated with analog 16 or DMSO only (control), 5 mL cultures were grown in M63 media supplemented with 4 μM iron, as described above, and analyzed at 12, 15, 21, 24, and 28 h. […] Cell pellets were washed twice with 10 mL of PBS and the total levels of cellular iron were measured using a published protocol.^18, 48 In brief, cell pellets were mixed with 500 μL of freshly prepared digestion reagent (1:1 v/v 1.2 N HCl and 4.5% w/v KMnO4 in water), thoroughly mixed by vortexing, and incubated at 65° C. for 4 h. […]"}},
  "note": "Entries after “also recorded” stand apart in the source; their conditions may differ.",
  "data": [
    {"smiles": "O=C1NC(=O)c2c(NCCCc3cccc(O)c3)cccc21", "note": "[Analog 16, 4-((3-(3-Hydroxyphenyl)propyl)amino)isoindoline-1,3-dione]", "values": [
      {"measurement": "survival, fold lower relative to ciprofloxacin alone", "setting": "[1]; analog 16 + ciprofloxacin", "result": "approximately 4 fold"},
      {"measurement": "survival", "setting": "[1]; analog 16 + ciprofloxacin 1 μg/mL", "result": "ca. 10%"},
      {"measurement": "survival", "setting": "[1]; analog 16 only, 125 μM", "result": "ca. 40%"},
      {"measurement": "IC50", "setting": "[2]", "result": 128, "unit": "µM"},
      {"measurement": "growth response of ΔbfrB mutant cells", "setting": "[3]", "result": "biphasic growth response"},
      {"measurement": "iron mobilization from BfrB (native PAGE stained with Ferene S)", "setting": "[4]", "result": "significant inhibition of iron mobilization from BfrB; also recorded: much slower (inhibited) mobilization of iron from BfrB"},
      {"measurement": "viable cells, fold fewer than untreated control", "setting": "[4]; all time points", "result": "approximately 2.5 fold"}
    ]}
  ]
}
